Values belong to the compound of their own block, whether it stands above or below them.
Tests used:
[1] = Drug uptake in Sprague-Dawley rat brain at 5 umol/kg, ig measured after 2 hrs by LC-MS/MS analysis; assay type: ADME, tissue-based; settings: in vivo, po, dose 5 µmol/kg
[2] = target: Synaptic vesicular amine transporter (Rattus norvegicus) (UniProt Q01827); test: Inhibition of [3H]DA uptake at VMAT2 in rat striatal synaptosome at 1 uM incubated for 10 mins followed by [3H]DA addition and measured after 20 mins by TopCount scintillation counting method relative to control; assay type: subcellular; settings: Striatum, time 30.0 min
[3] = target: Cytochrome P450 2D6 (Homo sapiens, UniProt P10635); test: Inhibition of CYP2D6 (unknown origin); assay type: ADME
[4] = Apparent volume of distribution during terminal phase in Sprague-Dawley rat at 10 umol/kg, ig administered as single dose measured after 12 hrs by LC-MS/MS analysis; assay type: ADME; settings: in vivo, po, dose 10 µmol/kg, read-out: Vz/F
[5] = target: Cytochrome P450 3A4 (Homo sapiens, UniProt P08684); test: Inhibition of CYP3A4 (unknown origin); assay type: ADME
[6] = Metabolic stability in monkey liver microsomes assessed as parent compound remaining at 1 uM in the presence of NADPH measured after 60 mins by LC-MS/MS analysis; assay type: ADME, Macaca mulatta, Microsome; settings: rhesus monkey, liver microsomes, read-out: Stability
[7] = Metabolic stability in monkey liver microsomes assessed as intrinsic clearance at 1 uM in the presence of NADPH measured for 60 mins by LC-MS/MS analysis; assay type: ADME, Macaca mulatta, Microsome; settings: rhesus monkey, read-out: CLH
[8] = Metabolic stability in mouse liver microsomes assessed as intrinsic clearance at 1 uM in the presence of NADPH measured for 60 mins by LC-MS/MS analysis; assay type: ADME, Microsome; settings: read-out: CLH
[9] = test system: Rattus norvegicus; test: Reduction in spontaneous locomotor activity in Sprague-Dawley rat at 3 umol/kg, po measured for 3 hrs; assay type: functional
[10] = Ratio of drug level in Sprague-Dawley rat brain to blood at 5 umol/kg, ig measured after 6 hrs by LC-MS/MS analysis; assay type: ADME, tissue-based; settings: po, dose 5 µmol/kg
[11] = Metabolic stability in mouse liver microsomes assessed as parent compound remaining at 1 uM in the presence of NADPH measured after 60 mins by LC-MS/MS analysis; assay type: ADME, Microsome; settings: for remaining at 1 h, 1 µM: liver microsomes, read-out: Stability
[12] = Metabolic stability in human liver microsomes assessed as intrinsic clearance at 1 uM in the presence of NADPH measured for 60 mins by LC-MS/MS analysis; assay type: ADME, Microsome; settings: read-out: CLH
[13] = target: Cytochrome P450 2C9 (Homo sapiens, UniProt P11712); test: Inhibition of CYP2C9 (unknown origin); assay type: ADME
[14] = Clearance in Sprague-Dawley rat at 10 umol/kg, ig administered as single dose measured for 12 hrs by LC-MS/MS analysis; assay type: ADME; settings: in vivo, po, dose 10 µmol/kg
[15] = AUC (0 to infinity) in Sprague-Dawley rat at 10 umol/kg, ig administered as single dose by LC-MS/MS analysis; assay type: ADME; set-up: time infinity, route […], dose 10 µmol/kg; settings: in vivo, po
[16] = Cmax in Sprague-Dawley rat at 10 umol/kg, ig administered as single dose measured for 12 hrs by LC-MS/MS analysis; assay type: ADME; set-up: route […], time 12 hrs, dose 10 µmol/kg; settings: in vivo, po
[17] = target: Cytochrome P450 2C19 (Homo sapiens, UniProt P33261); test: Inhibition of CYP2C19 (unknown origin); assay type: ADME
[18] = Metabolic stability in human liver microsomes assessed as parent compound remaining at 1 uM in the presence of NADPH measured after 60 mins by LC-MS/MS analysis; assay type: ADME, Microsome; settings: read-out: Stability
[19] = target: Synaptic vesicular amine transporter (Rattus norvegicus) (UniProt Q01827); test: Inhibition of [3H]DA uptake at VMAT2 in rat striatal synaptosome at 0.1 uM incubated for 10 mins followed by [3H]DA addition and measured after 20 mins by TopCount scintillation counting method relative to control; assay type: subcellular; settings: Striatum, time 30.0 min
[20] = test system: Rattus norvegicus; test: Reduction in spontaneous locomotor activity in Sprague-Dawley rat at 15 umol/kg, po measured for 3 hrs; assay type: functional
[21] = Tmax in Sprague-Dawley rat at 10 umol/kg, ig administered as single dose measured for 12 hrs by LC-MS/MS analysis; assay type: ADME; settings: in vivo, po, dose 10 µmol/kg
[22] = target: T1, Cytochrome P450 2B6 (Homo sapiens, UniProt P20813); test: Inhibition of CYP2B6 (unknown origin); assay type: ADME
T1 sequence (P20813 whole entry): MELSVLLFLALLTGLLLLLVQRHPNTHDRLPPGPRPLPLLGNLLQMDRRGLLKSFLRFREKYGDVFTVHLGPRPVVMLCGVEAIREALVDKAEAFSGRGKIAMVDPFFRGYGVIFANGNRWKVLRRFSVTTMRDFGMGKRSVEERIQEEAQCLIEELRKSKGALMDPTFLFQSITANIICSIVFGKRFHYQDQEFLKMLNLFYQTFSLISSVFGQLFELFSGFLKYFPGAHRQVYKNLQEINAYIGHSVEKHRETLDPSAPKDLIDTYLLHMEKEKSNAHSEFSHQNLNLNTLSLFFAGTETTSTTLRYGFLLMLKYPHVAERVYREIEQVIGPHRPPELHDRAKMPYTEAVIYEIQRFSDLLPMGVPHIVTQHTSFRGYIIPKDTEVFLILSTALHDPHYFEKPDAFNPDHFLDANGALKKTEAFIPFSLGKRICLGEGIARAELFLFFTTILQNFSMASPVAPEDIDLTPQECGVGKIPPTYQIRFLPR

[23] = target: Voltage-gated inwardly rectifying potassium channel KCNH2 (Homo sapiens, UniProt Q12809); test: Inhibition of human ERG
[24] = Half life in Sprague-Dawley rat at 10 umol/kg, ig administered as single dose measured for 12 hrs by LC-MS/MS analysis; assay type: ADME; settings: in vivo, po, dose 10 µmol/kg
[25] = target: T2, Synaptic vesicular amine transporter (Rattus norvegicus, UniProt Q01827); test: Inhibition of [3H]DTBZ binding to VMAT2 in rat brain incubated for 30 mins by liquid scintillation spectrometry analysis; assay type: tissue-based
[26] = target: T2, Synaptic vesicular amine transporter; test: Inhibition of [3H]DA uptake at VMAT2 in rat striatal synaptosome incubated for 10 mins followed by [3H]DA addition and measured after 20 mins by TopCount scintillation counting method; assay type: subcellular, Striatum
[27] = Metabolic stability in human liver microsomes assessed as half life at 1 uM in the presence of NADPH measured for 60 mins by LC-MS/MS analysis; assay type: ADME, Microsome
[28] = Metabolic stability in monkey liver microsomes assessed as half life at 1 uM in the presence of NADPH measured for 60 mins by LC-MS/MS analysis; assay type: ADME, Macaca mulatta, Microsome; settings: rhesus monkey
[29] = Metabolic stability in mouse liver microsomes assessed as half life at 1 uM in the presence of NADPH measured for 60 mins by LC-MS/MS analysis; assay type: ADME, Microsome; settings: for half-life at 1 µM: liver microsomes

Synaptic vesicular amine transporter (Rattus norvegicus), sequence (Q01827 whole entry): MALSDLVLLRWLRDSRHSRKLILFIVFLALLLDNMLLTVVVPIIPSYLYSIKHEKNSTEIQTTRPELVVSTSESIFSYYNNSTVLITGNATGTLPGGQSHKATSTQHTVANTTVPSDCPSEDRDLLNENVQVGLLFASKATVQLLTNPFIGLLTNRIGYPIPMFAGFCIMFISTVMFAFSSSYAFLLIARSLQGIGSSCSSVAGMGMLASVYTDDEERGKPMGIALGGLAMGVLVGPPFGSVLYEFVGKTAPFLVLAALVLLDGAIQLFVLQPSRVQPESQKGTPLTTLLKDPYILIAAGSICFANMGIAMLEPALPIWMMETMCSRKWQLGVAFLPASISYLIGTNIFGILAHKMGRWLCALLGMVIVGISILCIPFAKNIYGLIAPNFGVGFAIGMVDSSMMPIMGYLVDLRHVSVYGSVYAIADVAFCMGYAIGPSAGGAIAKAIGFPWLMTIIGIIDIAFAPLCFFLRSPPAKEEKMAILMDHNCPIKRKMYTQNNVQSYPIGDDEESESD
T2 sequence (Q01827 whole entry): as above
Cytochrome P450 2D6, sequence (P10635 whole entry): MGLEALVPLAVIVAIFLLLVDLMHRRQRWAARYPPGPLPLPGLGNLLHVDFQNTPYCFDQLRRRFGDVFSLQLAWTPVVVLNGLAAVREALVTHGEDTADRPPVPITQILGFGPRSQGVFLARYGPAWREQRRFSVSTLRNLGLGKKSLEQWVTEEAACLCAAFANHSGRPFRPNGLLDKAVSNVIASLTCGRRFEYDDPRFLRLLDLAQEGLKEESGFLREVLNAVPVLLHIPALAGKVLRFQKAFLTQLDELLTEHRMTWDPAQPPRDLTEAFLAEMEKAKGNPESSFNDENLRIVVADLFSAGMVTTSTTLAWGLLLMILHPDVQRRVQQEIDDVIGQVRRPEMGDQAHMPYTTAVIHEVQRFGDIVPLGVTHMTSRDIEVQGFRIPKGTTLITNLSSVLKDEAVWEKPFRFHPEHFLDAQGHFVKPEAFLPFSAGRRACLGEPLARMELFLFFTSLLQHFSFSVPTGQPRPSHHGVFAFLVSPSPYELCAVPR
Cytochrome P450 2C19, sequence (P33261 whole entry): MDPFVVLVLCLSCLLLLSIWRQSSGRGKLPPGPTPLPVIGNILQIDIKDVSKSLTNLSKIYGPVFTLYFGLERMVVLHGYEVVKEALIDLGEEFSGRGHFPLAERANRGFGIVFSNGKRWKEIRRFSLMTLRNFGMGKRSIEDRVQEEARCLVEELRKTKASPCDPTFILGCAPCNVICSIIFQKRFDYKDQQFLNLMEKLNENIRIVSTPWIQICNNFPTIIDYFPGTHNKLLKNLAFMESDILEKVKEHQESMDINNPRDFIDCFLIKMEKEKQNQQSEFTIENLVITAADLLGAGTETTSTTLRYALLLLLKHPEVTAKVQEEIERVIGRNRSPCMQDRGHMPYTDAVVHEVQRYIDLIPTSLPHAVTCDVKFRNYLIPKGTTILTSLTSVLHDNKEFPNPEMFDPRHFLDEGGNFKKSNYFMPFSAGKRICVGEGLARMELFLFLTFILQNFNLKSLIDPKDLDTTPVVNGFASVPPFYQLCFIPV
Cytochrome P450 2C9, sequence (P11712 whole entry): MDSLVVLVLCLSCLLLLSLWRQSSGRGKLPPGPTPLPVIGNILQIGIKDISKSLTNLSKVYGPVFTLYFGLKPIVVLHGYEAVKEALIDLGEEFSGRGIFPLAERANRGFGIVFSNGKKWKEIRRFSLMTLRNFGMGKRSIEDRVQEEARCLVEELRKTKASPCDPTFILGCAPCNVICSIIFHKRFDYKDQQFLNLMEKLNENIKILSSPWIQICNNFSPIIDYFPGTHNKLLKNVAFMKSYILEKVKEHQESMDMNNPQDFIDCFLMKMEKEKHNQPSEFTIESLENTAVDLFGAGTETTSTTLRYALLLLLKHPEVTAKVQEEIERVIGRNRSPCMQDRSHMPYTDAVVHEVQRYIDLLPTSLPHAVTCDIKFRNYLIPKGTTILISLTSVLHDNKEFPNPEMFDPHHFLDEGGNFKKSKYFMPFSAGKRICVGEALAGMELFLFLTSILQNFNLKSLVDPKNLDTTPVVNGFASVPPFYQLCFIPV
Cytochrome P450 3A4, sequence (P08684 whole entry): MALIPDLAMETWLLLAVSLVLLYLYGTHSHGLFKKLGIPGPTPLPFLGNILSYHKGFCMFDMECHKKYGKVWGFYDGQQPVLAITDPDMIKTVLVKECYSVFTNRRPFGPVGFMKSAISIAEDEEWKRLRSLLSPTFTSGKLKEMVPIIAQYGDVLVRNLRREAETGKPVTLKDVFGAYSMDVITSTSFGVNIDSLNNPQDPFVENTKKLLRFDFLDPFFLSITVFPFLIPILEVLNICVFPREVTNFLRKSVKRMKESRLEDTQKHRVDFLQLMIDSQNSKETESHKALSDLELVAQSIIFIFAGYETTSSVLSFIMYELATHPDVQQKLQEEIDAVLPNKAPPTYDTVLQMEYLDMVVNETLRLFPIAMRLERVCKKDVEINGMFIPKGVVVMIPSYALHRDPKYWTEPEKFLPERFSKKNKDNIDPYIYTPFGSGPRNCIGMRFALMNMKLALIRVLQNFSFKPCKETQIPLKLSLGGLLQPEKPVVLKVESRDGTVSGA
Voltage-gated inwardly rectifying potassium channel KCNH2, sequence (Q12809 whole entry): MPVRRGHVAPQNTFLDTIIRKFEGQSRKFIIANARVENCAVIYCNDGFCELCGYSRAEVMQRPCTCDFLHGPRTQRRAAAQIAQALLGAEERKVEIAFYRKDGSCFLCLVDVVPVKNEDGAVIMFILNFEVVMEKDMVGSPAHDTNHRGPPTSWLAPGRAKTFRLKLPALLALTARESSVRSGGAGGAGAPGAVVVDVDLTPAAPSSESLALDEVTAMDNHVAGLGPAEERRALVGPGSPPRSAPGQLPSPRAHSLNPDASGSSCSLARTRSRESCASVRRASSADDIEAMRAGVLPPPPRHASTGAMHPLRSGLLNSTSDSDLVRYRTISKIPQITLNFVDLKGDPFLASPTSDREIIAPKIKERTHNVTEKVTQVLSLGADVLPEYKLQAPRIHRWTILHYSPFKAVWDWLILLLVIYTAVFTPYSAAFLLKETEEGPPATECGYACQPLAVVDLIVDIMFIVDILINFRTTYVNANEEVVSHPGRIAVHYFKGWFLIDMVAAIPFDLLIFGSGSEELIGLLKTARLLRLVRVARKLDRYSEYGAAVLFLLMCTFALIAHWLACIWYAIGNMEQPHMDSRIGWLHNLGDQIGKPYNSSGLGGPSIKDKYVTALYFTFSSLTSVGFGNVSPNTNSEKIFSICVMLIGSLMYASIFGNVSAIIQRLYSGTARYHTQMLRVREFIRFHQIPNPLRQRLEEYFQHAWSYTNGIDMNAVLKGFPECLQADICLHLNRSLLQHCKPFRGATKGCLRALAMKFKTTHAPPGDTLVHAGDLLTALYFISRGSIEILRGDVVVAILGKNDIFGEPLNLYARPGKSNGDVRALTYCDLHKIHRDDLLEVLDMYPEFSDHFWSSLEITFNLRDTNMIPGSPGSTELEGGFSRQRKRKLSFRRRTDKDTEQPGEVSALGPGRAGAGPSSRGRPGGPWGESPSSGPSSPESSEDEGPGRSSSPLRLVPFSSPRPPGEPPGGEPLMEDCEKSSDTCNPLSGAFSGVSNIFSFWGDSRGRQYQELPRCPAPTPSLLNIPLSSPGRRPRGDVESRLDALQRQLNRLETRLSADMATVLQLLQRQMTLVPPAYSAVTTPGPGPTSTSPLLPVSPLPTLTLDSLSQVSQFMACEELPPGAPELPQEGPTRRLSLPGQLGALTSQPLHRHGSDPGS

SMILES: COc1cc2c(cc1OCC(F)(F)F)CCN1CC(CC(C)C)C(O)CC21 (stereo not drawn)
Drug uptake [1]: 458.2 nmol/kg
inhibition [2]: 99.9%
IC50 [3]: > 100000 nM
Vd/F [4]: 10.8 L/kg
IC50 [5]: > 100000 nM
remaining at 1 h, 1 µM [6]: 48.1%
CLint scaled at 1 µM [7]: 31.9 mL/min/kg
CLint scaled at 1 µM [8]: 238 mL/min/kg
inhibition in vivo at 3 µmol/kg [9]: 64.7%
Kp at 6 h [10]: 2.21
remaining at 1 h, 1 µM [11]: 14.2%
CLint scaled at 1 µM [12]: 8.6 mL/min/kg
IC50 [13]: > 100000 nM
CL/F [14]: 53.3 mL/min/kg
AUC(0-inf) [15]: 3.47 µM·h
Cmax [16]: 1400 nM
IC50 [17]: > 100000 nM
remaining at 1 h, 1 µM [18]: 77.4%
inhibition [19]: 99.9%
inhibition in vivo at 15 µmol/kg [20]: 93.7%
Tmax [21]: 45 min
IC50 [22]: > 100000 nM
IC50 [23]: 6510 nM
half-life [24]: 137 min

SMILES: CCOc1cc2c(cc1OCC1CC1)CCN1CC(CC(C)C)C(O)CC21 (stereo not drawn)
IC50 [25]: 21.4 nM

SMILES: CCCOc1cc2c(cc1OC(C)C)CCN1CC(CC(C)C)C(O)CC21 (stereo not drawn)
IC50 [25]: > 500 nM

SMILES: COc1cc2c(cc1OC)[C@H]1C[C@@H](O)[C@H](CC(C)C)CN1CC2 [DIHYDROTETRABENAZINE]
Drug uptake [1]: 213.5 nmol/kg
IC50 [3]: > 100000 nM
Vd/F [4]: 10.5 L/kg
IC50 [5]: > 100000 nM
remaining at 1 h, 1 µM [6]: 29.9%
CLint scaled at 1 µM [7]: 53.7 mL/min/kg
CLint scaled at 1 µM [8]: 1150 mL/min/kg
inhibition in vivo at 3 µmol/kg [9]: 48.4%
remaining at 1 h, 1 µM [11]: 4.8%
CLint scaled at 1 µM [12]: 20.9 mL/min/kg
IC50 [13]: > 100000 nM
CL/F [14]: 74.5 mL/min/kg
AUC(0-inf) [15]: 2.3 µM·h
half-life at 1 µM [27]: 120 min
half-life at 1 µM [28]: 34.8 min
Cmax [16]: 1210 nM
IC50 [17]: > 100000 nM
half-life at 1 µM [29]: 4.8 min
remaining at 1 h, 1 µM [18]: 75.6%
inhibition in vivo at 15 µmol/kg [20]: 91.4%
Tmax [21]: 22.8 min
IC50 [22]: > 100000 nM
half-life [24]: 96.6 min

SMILES: COc1cc2c(cc1OC)C1CC(N)C(CC(C)C)CN1CC2 (stereo not drawn)
inhibition [2]: 87.9%
IC50 [25]: 102 nM
inhibition [19]: 72.8%

Continued, values first:

inhibition [2]: 81.7%
IC50 [25]: > 500 nM
inhibition [19]: 33.2%
SMILES: CCC1(O)CC2c3cc(OC)c(OC)cc3CCN2CC1CC(C)C (stereo not drawn)

inhibition [2]: 93.7%
IC50 [25]: 87 nM
IC50 [26]: 27.9 nM
inhibition [19]: 85%
SMILES: COc1cc2c(cc1OC)C1CC(O)(C#N)C(CC(C)C)CN1CC2 (stereo not drawn)

inhibition [2]: 99.2%
IC50 [25]: 5.99 nM
remaining at 1 h, 1 µM [6]: 17.6%
CLint scaled at 1 µM [7]: 72.4 mL/min/kg
IC50 [26]: 17.8 nM
CLint scaled at 1 µM [8]: 522 mL/min/kg
Stability ([11]; microsomes, 1 h, 1 µM): 22.6%
CLint scaled at 1 µM [12]: 19.4 mL/min/kg
half-life at 1 µM [27]: 128 min
half-life at 1 µM [28]: 25.9 min
t1/2 ([29]; microsomes, 1 h, 1 µM): 10.5 min
remaining at 1 h, 1 µM [18]: 74.7%
inhibition [19]: 96%
SMILES: COc1cc2c(cc1OCC1CC1)CCN1CC(CC(C)C)C(O)CC21 (stereo not drawn)

inhibition [2]: 99.3%
IC50 [26]: 35.2 nM
inhibition [19]: 91.2%
SMILES: CCCOc1cc2c(cc1OC)C1CC(O)C(CC(C)C)CN1CC2 (stereo not drawn)

remaining at 1 h, 1 µM [6]: 10.5%
CLint scaled at 1 µM [7]: 149 mL/min/kg
CLint scaled at 1 µM [8]: 254 mL/min/kg
remaining at 1 h, 1 µM [11]: 13.4%
CLint scaled at 1 µM [12]: 76 mL/min/kg
half-life at 1 µM [27]: 32.8 min
half-life at 1 µM [28]: 12.6 min
half-life at 1 µM [29]: 21.6 min
remaining at 1 h, 1 µM [18]: 30.8%
SMILES: COc1cc2c(cc1OC)C1CC(=O)C(CC(C)C)CN1CC2 (stereo not drawn) [TETRABENAZINE]

inhibition [2]: 96.1%
IC50 [25]: > 500 nM
inhibition [19]: 53.1%
SMILES: COc1cc2c(cc1OC)C1CC(C)(O)C(CC(C)C)CN1CC2 (stereo not drawn)

IC50 [25]: > 500 nM
SMILES: CCCOc1cc2c(cc1OC(C)C)C1CC(O)C(CC(C)C)CN1CC2 (stereo not drawn)
